Results taken from patent US9006455B2 (Bristol-Myers Squibb Company, priority 2009, dated 2015).

Tested on: HCV 1b genotype
Test: HCV Replicon assay (HCV 1b genotype)
Format: cell-based
Conditions: Hepatitis C virus; HCV 1b genotype replicon; read-out: EC50
Procedure: An HCV Replicon assay was utilized in the present disclosure, and was prepared, conducted and validated as described in commonly owned PCT/US2006/022197 and in O'Boyle et al., Antimicrob. Agents Chemother., 49(4):1346-1353 (April 2005). Assay methods incorporating luciferase reporters have also been used as described (Apath.com).
HCV-neo replicon cells and replicon cells containing resistance substitutions in the NS5A region were used to test the currently described family of compounds. The compounds were determined to have differing degrees of reduced inhibitory activity on cells containing mutations vs. the corresponding inhibitory potency against wild-type cells. Thus, the compounds of the present disclosure can be effective in inhibiting the function of the HCV NS5A protein and are understood to be as effective in combinations as previously described in application PCT/US2006/022197 and commonly owned WO 04/014852. It should be understood that the compounds of the present disclosure can inhibit multiple genotypes of HCV. […] In one embodiment, compounds of the present disclosure are inhibitory versus 1a, 1b, 2a, 2b, 3a, 4a, and 5a genotypes.

For `COC(=O)N[C@H](C(=O)N1CCC[C@H]1c1nc2ccc(-c3ccc4cc(-c5ccc6nc([C@@H]7CCCN7C(=O)[C@@H](NC(=O)OC)C7CCOCC7)[nH]c6c5)ccc4c3)cc2[nH]1)C(C)C` [Example 27, Methyl((1S)-2-((2S)-2-(5-(6-(2-((2S)-1-((2S)-2-((methoxycarbonyl)amino)-3-methylbutanoyl)-2-pyrrolidinyl)-1H-benzimidazol-5-yl)-2-naphthyl)-1H-benzimidazol-2-yl)-1-pyrrolidinyl)-2-oxo-1-(tetrahydro-2H-pyran-4-yl)ethyl)carbamate], which EC50 is on record?
Its EC50 is 0.00477 nM.

How did the EC50 turn out when `COC(=O)N[C@H](C(=O)N1[C@@H]2C[C@@H]2C[C@H]1c1ncc(-c2ccc(-c3ccc4nc(-c5cnc([C@@H]6C[C@H]7C[C@H]7N6C(=O)[C@@H](NC(=O)OC)C(C)C)[nH]5)cnc4c3)cc2)[nH]1)C(C)C` [Example 104] was run?
The EC50 was 0.00201 nM.

For `COC(=O)N[C@H](C(=O)N(C)[C@@H](C)c1ncc(-c2ccc(-c3ccc4cc(-c5cnc([C@H](C)N(C)C(=O)[C@@H](NC(=O)OC)C(C)C)[nH]5)ccc4c3)cc2)[nH]1)C(C)C` [Example 126, Methyl((1S)-1-(((1S)-1-(4-(4-(6-(2-((1S)-1-(((2S)-2-((methoxycarbonyl)amino)-3-methylbutanoyl)(methyl)amino)ethyl)-1H-imidazol-4-yl)-2-naphthyl)phenyl)-1H-imidazol-2-yl)ethyl)(methyl)carbamoyl)-2-methylpropyl)carbamate], which EC50 is on record?
The EC50 was 0.654 nM.

Same assay, conditions: Hepatitis C virus; HCV 1b genotype replicon; read-out: Range (EC50 values against HCV 1b)

For `COC(=O)N[C@H](C(=O)N1CCC[C@@H]1c1nc2nc(-c3ccc4cc(-c5cnc6[nH]c([C@@H]7CCCN7C(=O)[C@@H](NC(=O)OC)C(C)C)nc6n5)ccc4c3)cnc2[nH]1)C(C)C` [Example 25A, Methyl((1S)-1-(((2S)-2-(5-(6-(2-((2R)-1-((2S)-2-((methoxycarbonyl)amino)-3-methylbutanoyl)-2-pyrrolidinyl)-1H-imidazo[4,5-b]pyrazin-5-yl)-2-naphthyl)-1H-imidazo[4,5-b]pyrazin-2-yl)-1-pyrrolidinyl)carbonyl)-2-methylpropyl)carbamate], which EC50 is on record?
Its EC50 is 1.01 to 1000 nM.

`COC(=O)N[C@H](C(=O)N1CCC[C@H]1c1ncc(-c2ccc3cc(-c4cnc([C@@H]5CCCN5C(=O)[C@@H](NC(=O)OC)C(C)C)[nH]4)ccc3c2)[nH]1)C(C)C` [Example 32] was tested. Which EC50 did it give?
Its EC50 is 0.0101 to 1 nM.

Which EC50 does the source give for `O=C([C@@H](c1ccccc1)N1CCCCC1)N1CCC[C@H]1c1nc2ccc(-c3ccc4cc(-c5ccc6nc([C@@H]7CCCN7C(=O)[C@@H](c7ccccc7)N7CCCCC7)[nH]c6c5)ccc4c3)cc2[nH]1` [Example 7, 5,5′-(2,6-Naphthalenediyl)bis(2-((2S)-1-((2R)-2-phenyl-2-(1-piperidinyl)acetyl)-2-pyrrolidinyl)-1H-benzimidazole)] here?
The EC50 was 0.0101 to 1 nM.

How did the EC50 turn out when `COC(=O)N[C@H](C(=O)N(C)[C@@H](C)c1ncc(-c2ccc(-c3ccc4cc(-c5cnc([C@H](C)N(C)C(=O)[C@@H](NC(=O)OC)C(C)C)[nH]5)ccc4c3)cc2)[nH]1)C(C)C` [Example 126, Methyl((1S)-1-(((1S)-1-(4-(4-(6-(2-((1S)-1-(((2S)-2-((methoxycarbonyl)amino)-3-methylbutanoyl)(methyl)amino)ethyl)-1H-imidazol-4-yl)-2-naphthyl)phenyl)-1H-imidazol-2-yl)ethyl)(methyl)carbamoyl)-2-methylpropyl)carbamate] was run?
The EC50 was 0.0101 to 1 nM.

Which EC50 does the source give for `COC(=O)N[C@H](C(=O)N1[C@@H]2C[C@@H]2C[C@H]1c1ncc(-c2ccc3cc(C#Cc4cnc([C@@H]5C[C@H]6C[C@H]6N5C(=O)[C@@H](NC(=O)OC)C5CCOCC5)[nH]4)ccc3c2)[nH]1)C(C)C` [Example 96, Methyl((1S)-2-((1R,3S,5R)-3-(4-((6-(2-((1R,3S,5R)-2-((2S)-2-((methoxycarbonyl)amino)-3-methylbutanoyl)-2-azabicyclo[3.1.0]hex-3-yl)-1H-imidazol-4-yl)-2-naphthyl)ethynyl)-1H-imidazol-2-yl)-2-azabicyclo[3.1.0]hex-2-yl)-2-oxo-1-(tetrahydro-2H-pyran-4-yl)ethyl)carbamate] here?
Its EC50 is 0.0101 to 1 nM.

`COC(=O)N[C@@H](C)C(=O)N1CCC[C@H]1c1nc2ccc(-c3ccc4cc(-c5ccc6nc([C@@H]7CCCN7C(=O)[C@H](C)NC(=O)OC)[nH]c6c5)ccc4c3)cc2[nH]1` [Example 5, Methyl((1S)-2-((2S)-2-(5-(6-(2-((2S)-1-(N-(methoxycarbonyl)-L-alanyl)-2-pyrrolidinyl)-1H-benzimidazol-5-yl)-2-naphthyl)-1H-benzimidazol-2-yl)-1-pyrrolidinyl)-1-methyl-2-oxoethyl)carbamate] was tested. Which EC50 did it give?
Its EC50 is 0.0101 to 1 nM.
